Assay: Measurement of porosity (KOPTRI)
Format: physicochemical
Procedure: The porosity measurement was performed by the Korea Polymer Testing & Research Institute (KOPTRI), an accredited international testing agency, by requesting the samples prepared by the present applicant.

For `O=P1(N(CCCl)CCCl)NCCCO1` (stereo not drawn) [Comparison 2, 2-[bis(2-chloroethyl)amino]tetrahydro-2H-1,3,2-oxazaphosphorin-2-oxide], the Apparent density was 1.31 g/mL, the Porosity was 5.24% and the Average diameter (pore size) was 0.02 μm.

— patent US11707434B2, “Method for preparing organic solvent-free lyophilized cyclophosphamide” (KOREA UNITED PHARM. INC., priority 2018, dated 2023)
